Measured values published in patent US9962427B2, “Treatment of right ventricular dysfunction due to pressure overload” (OTTAWA HOSPITAL RESEARCH INSTITUTE, priority 2016, dated 2018).

B1: hCT1: Recombinant human CT1 protein; 201 amino acid sequence, GenBank Accession Nos AAD12173 and AAA85229 (human) (protein, UniProt Q16619 1-201, looked up)
Cardiotrophin-1: MSRREGSLEDPQTDSSVSLLPHLEAKIRQTHSLAHLLTKYAEQLLQEYVQLQGDPFGLPSFSPPRLPVAGLSAPAPSHAGLPVHERLRLDAAALAALPPLLDAVCRRQAELNPRAPRLLRRLEDAARQARALGAAVEALLAALGAANRGPRAEPPAATASAASATGVFPAKVLGLRVCGLYREWLSRTEGDLGQLLPGGSA

What was measured:
[1] = tested on: primary neonatal cardiomyocytes; experiment: Morphometric analysis of stimulated primary neonatal cardiomyocytes (cell area, length:width ratio); assay type: cell-based; settings: 24 hours stimulation, PE 100 μM; for cell areas increases: versus serum-free control
Procedure: FIGS. 1A and 1B. Morphometric analysis of primary cardiomyocytes stimulated with human Cardiotrophin-1 (hCT1) and/or the hypertrophy agonist Phenylephrine (PE).
Phenylephrine (PE) was used as a pathological adaptive compensation control as it is a known target of the stress-activated G-protein coupled alpha (α)-adrenergic pathway. Primary neonatal cardiomyocytes were stimulated for 24 hours with hCT1 (0.5 nM), PE (100 μM), the combination of hCT1 and PE, or control serum-free (SF) media followed by morphometric analysis (cell area and length:width ratio) (FIG. 1A). […] This CT-1 mediated growth is typical of the cardiomyocyte adaptations that occur during physiologic adaptive compensation with an L:W ratio that is divergent from PE induced growth.

[2] = tested on: primary neonatal cardiomyocytes; experiment: In vitro reversion of cardiomyocyte hypertrophy after removal of stimulus; assay type: cell-based; settings: for myocyte hypertrophy (cell area) after removal of stimulus: 2 day treatment, then 4 days serum-free media (Day 6); for cardiomyocyte cell size after 2 days of stimulation compared to control: PE 100 μM or hCT1 0.5 nM, Day 2
Procedure: FIGS. 2A and 2B. hCT1 induces physiologic adaptive compensation in vitro with reversion to a normal cardiomyocyte phenotype upon removal of hCT1 stimulation.
The morphological effects of CT-1 in an in vitro reversion setting (FIGS. 2A and 2B) were explored. Primary neonatal cardiomyocytes were stimulated for 2 days with phenylephrine (PE, 100 μM) or hCT1 (0.5 nM) followed by removal of the stimulus for 4 days: i.e. replenished with serum-free (SF) media. Cells were imaged at Day 0 and Day 2 of stimulation; and at Day 6 (4 days post-treatment). […] The population frequencies of L:W ratios of cardiomyocytes stimulated as above were examined (FIG. 2B). […] However, upon treatment with CT-1, only ˜20% of cardiomyocytes display a L:W ratio of 1.0 to 2.0 with the remaining cardiomyocytes showing an increased shift between 3.0 and 9.0 indicating eccentric growth. […] These observations indicate that although there is not complete penetrance of the eccentric growth (presumably due to the dosage and timing of CT-1 stimulation used), CT-1 causes an eccentric and reversible cardiomyocyte growth similar to what is seen during RV adaptive compensation, which is distinct from the concentric growth observed with PE which models pathological hypertrophic changes.

rats = experiment: In vivo growth reversal analysis (ECHO, HW:BW, CD31 capillary density) after 2 week delivery and follow-on; design: species or system rat; settings: for ventricle wall thickness at 2 weeks: CT-1 6 μg/kg/hr or PE 10 mg/kg/day for 2 weeks
Source text: FIGS. 3A, 3B, and 3C. […] Arrows (in upper panels) point to myocardial wall (RVLW). Dotted lines (in lower panels) show inner ventricle chambers.
FIGS. 4A and 4B. Beneficial/physiologic cardiac adaptive compensation and reversion to baseline cardiac dimensions is observed upon 2 weeks of hCT1 administration in vivo followed by hCT1 withdrawal for 4 weeks. Identical follow-on procedure and analysis as conducted in FIG. 3 above. FIG. 4A Whole hearts and Hematoxylin & Eosin (H & E) stained sections and quantification of the heart weight to body weight (HW:BW) ratio 6 weeks post-treatment with hCT1 or PE.
CT-1 was tested in vivo to determine whether its administration would induce a myocardial adaptive remodeling characteristic of physiologic compensation (FIGS. 3A, 3B, and 3C). Osmotic minipumps containing PBS control (Ctrl) or hCT1 (6 μg/kg/hr) or Isoproterenol (ISO, 1 mg/kg/day) were implanted subcutaneously in rats. ISO is a beta-adrenergic receptor agonist and continuous infusion with ISO in rats is known to induce pathological cardiac hypertrophy and cardiomyocyte damage (in both the right and left ventricles) which progresses to heart failure (Morisco et al (2001) J Mol Cell Cardiol 33:561-573 and Grimm et al (1998) Cardiovascular Research 37:91-100). After 2 weeks of treatment, M-mode ECHO analysis was used to assess myocardial structure/function (FIG. 3A). In this model, an increased right ventricle lateral wall (RVLW) thickness indicates the presence of myocardiocytes growth, and an increased ratio of the right to left ventricle internal diameters (RVID/LVID) is an indicator of pathologic hypertrophy. An increased RVLW thickness but constant or reduced RVID:LVID ratio is an indicator of adaptive compensatory RV remodeling. Both hCT1 and ISO induced a significant increase in RVLW thickness (12% and 32% fold increase, respectively) compared to control rats (n=3; * and **, P<0.05). […] An in vivo growth reversal analysis was also conducted. Following a 2 week delivery of CT-1 protein (6 μg/kg/hr) or PE (10 mg/kg/day) as the pathologic control in this case, animals were then assessed for cardiac structure/function at a 6 week follow-on period. […] Collectively, these studies support the contention that CT-1 elicits a reversible physiologic cardiac adaptive compensation.

STAT3 = STAT3 luciferase reporter in cardiomyocytes; assay type: cell-based; settings: 30 minutes up to 24 hours; hCT1 0.5 nM, PE 100 μM, PAC-1 25 μM
Procedure: FIGS. 6A, 6B, and 6C. Stimulation with hCT1 causes sustained activation of NF-κB and Stat3 with limited activation of Mef2, as well as limited Nfat activation; the latter two indices are distinct expression patterns from pathologic hypertrophic stimulation. FIG. 6A Primary neonatal cardiomyocytes were transfected with luciferase reporter plasmids (NF-κB or Mef2), as indicators of hypertrophic activity. Luciferase activity was measured after treatments for 24 hrs with: hCT1 (0.5 nM), PE (100 μM), or procaspase 3 activating compound 1, PAC-1 (25 μM) (left). Treatments at early timepoints (30 min, 1 hr, and 3 hr) were also conducted for hCT1 (right). FIG. 6B Primary neonatal cardiomyocytes were transfected with a luciferase reporter plasmid for Stat3. Luciferase activity was measured after treatments for 24 hrs with: hCT1 (0.5 nM), PE (100 μM), or procaspase 3 activating compound 1, PAC-1 (25 μM) (left) and at earlier time points (right). FIG. 6C Primary neonatal cardiomyocytes were infected with a luciferase-based Nfat reporter Adenovirus (Nfat-AdV). Luciferase activity was measured after treatments for 24 hrs with: hCT1 (0.5 nM), PE (100 μM), or procaspase 3 activating compound 1, PAC-1 (25 μM) (left) and at earlier time points (right)
Moreover, it is reasonable to assume that CT-1 may moderate the activity of additional transcription factors, which further contribute to the adaptive compensation phenotype. As such, Applicants decided to test the hypothesis that STAT3 (Signal transducer and activator of transcription 3) dependent transcriptional activity is a specific determinant for CT-1 induced physiologic adaptive compensation. STAT3 phosphorylation and transcriptional activation is a response that is common to the Interleukin-6 cytokine family (of which CT-1 is a member), which is mediated through binding and activation of a JAK/gp130 (Janus kinase/[…]) receptor complex.

[3] = 2 week delivery, 6 week follow-on

| Molecule | L:W ratio, in words [1] | cell areas increases ([1]; hCT1 0.5 nM) [%] | myocyte hypertrophy (cell area) after removal of stimulus [2] | cardiomyocyte cell size after 2 days of stimulation compared to control [2] | RVID/LVID ratio at 6 weeks post-treatment compared to control rats (rats; [3]) | heart weight to body weight ratio at 6 weeks post-treatment (rats; [3]) | wall thickness / cardiac dimensions at 6 weeks post-treatment (rats; [3]) | cardiac capillary density (CD31 immunostained right ventricle sections) (rats; 6 weeks post-treatment, compared to CT-1 treated and control animals) | ventricle wall thickness at 2 weeks (rats) | STAT3 activation (STAT3) | L:W ratio (length to width ratio) ([1]; hCT1 0.5 nM) [%] | L:W ratio population frequency after removing stimulation ([2]; 4 days after removal) | proportion of cardiomyocytes with L:W ratio of 1.0 to 2.0 ([2]; upon treatment (2 days), control ~60%) [%] |
| --- | --- | --- | --- | --- | --- | --- | --- | --- | --- | --- | --- | --- | --- |
| CNC[C@H](O)c1cccc(O)c1 [PE, Phenylephrine] | same or shortened L:W ratio | 171 | remained hypertrophied | increase in cardiomyocyte cell size | maintained their increased RVID/LVID ratio | increased heart weight to body weight ratio | retaining the substantial increase in wall thickness | significant decrease in cardiac capillary density | increase in (both) ventricle wall thickness | only minimal (if any) activation | – | – | – |
| B1 | – | 162 | reversion of the myocyte hypertrophy | increase in cardiomyocyte cell size | – | – | complete return to baseline cardiac dimensions for wall thickness | – | increase in (both) ventricle wall thickness | significant STAT3 activation | 172 | reversion of L:W ratio occurs | ~20 |
